From publication PMC11191095, “QSAR Reveals Decreased Lipophilicity of Polar Residues Determines the Selectivity of Antimicrobial Peptide Activity” (ACS Omega, 2024)
Where a SMILES comes first, the peptide text is derived from it.

What was measured:
K. pneumoniae M6 = assay: microbe, parasite or virus in culture; type: cell-based, Klebsiella pneumoniae; conditions: K. pneumoniae M6 (S); shown in µM
Summary of the method: (§1)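 Peptides 128→2 μg/mL, 2-fold series; inoculum ~5 × 10^5 CFU/mL from overnight culture (OD600 0.01, mixed 1:1). MHB non-cation-adjusted for bacteria, RPMI 1640 + 2% glucose for fungi. 37 °C, 20 h, OD600. MIC50/MIC90 at 50%/90% inhibition; n ≥ 3.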

K. pneumoniae NCTC 13368 = assay: microbe, parasite or virus in culture; type: cell-based, Klebsiella pneumoniae; conditions: K. pneumoniae NCTC 13368 (R); shown in µM
Summary of the method: as §1

P. aeruginosa NCTC 13437 = assay: microbe, parasite or virus in culture; type: cell-based, Pseudomonas aeruginosa; conditions: P. aeruginosa NCTC 13437 (R); shown in µM
Summary of the method: as §1

P. aeruginosa PAO1 = assay: microbe, parasite or virus in culture; type: cell-based, Pseudomonas aeruginosa; conditions: P. aeruginosa PAO1 (S); shown in µM
Summary of the method: as §1

C. tropicalis NCPF 8760 = assay: microbe, parasite or virus in culture; type: cell-based; conditions: C. tropicalis NCPF 8760; shown in µM
Summary of the method: as §1

C. albicans NCPF 3281 = assay: microbe, parasite or virus in culture; type: cell-based; conditions: C. albicans NCPF 3281; shown in µM
Summary of the method: as §1

C. glabrata NCPF 8018 = assay: microbe, parasite or virus in culture; type: cell-based; conditions: C. glabrata NCPF 8018; shown in µM
Summary of the method: as §1

C. krusei NCPF 3876 = assay: microbe, parasite or virus in culture; type: cell-based; conditions: C. krusei NCPF 3876; shown in µM
Summary of the method: as §1

[1] = test system: C. parapsilosis NCPF 3209; assay: microbe, parasite or virus in culture; type: cell-based; conditions: C. parapsilosis NCPF 3209; shown in µM
Summary of the method: as §1

human erythrocytes = assay: In vitro hemolytic activity; type: cell-based; conditions: human erythrocytes in PBS, 1 h, 37 °C, OD550; from dose response curves
Method: Potential erythrocyte hemolysis was tested by incubating serial dilutions of the AMPs in PBS with freshly collected erythrocytes at a ratio of 1:1 in 96-well polypropylene V-shape plates for 1 h at 37 °C. Control wells were treated with 0.1% Triton-X-100 to ensure complete lysis or PBS-only to represent no lysis. The erythrocytes were collected by centrifugation and the OD550 of the supernatant was measured using a plate reader. The percentage hemolysis was calculated as [drawing 1] 1 where Apeptide is the absorbance value of erythrocytes exposed to a known peptide concentration, Agrowth control is the absorbance of erythrocytes exposed to 0.1% Triton-X-100 and Ablank is the absorbance of erythrocytes exposed to the PBS. The concentrations at which a peptide caused 10% (HC10) and 50% (HC50) hemolysis was determined from the dose response curves.

C. auris TDG 1912 = assay: microbe, parasite or virus in culture; type: cell-based, Candida auris; conditions: C. auris TDG 1912
Summary of the method: as §1

[2] = test system: S. aureus (MSSA) ATCC 9144; assay: microbe, parasite or virus in culture; type: cell-based, Staphylococcus aureus; conditions: S. aureus (MSSA) ATCC 9144 (S); shown in µM
Summary of the method: as §1

[3] = test system: S. aureus (MRSA) NCTC 13616; assay: microbe, parasite or virus in culture; type: cell-based, Staphylococcus aureus; conditions: S. aureus (MRSA) NCTC 13616 (R); shown in µM
Summary of the method: as §1

S. aureus (MRSA) 1199B = assay: microbe, parasite or virus in culture; type: cell-based, Staphylococcus aureus; conditions: S. aureus (MRSA) 1199B (R); shown in µM
Summary of the method: as §1

S. aureus (MRSA) USA300 = assay: microbe, parasite or virus in culture; type: cell-based, Staphylococcus aureus; conditions: S. aureus (MRSA) USA300 (R); shown in µM
Summary of the method: as §1

E. coli NCTC 12923 = assay: microbe, parasite or virus in culture; type: cell-based, Escherichia coli; conditions: E. coli NCTC 12923 (S); shown in µM
Summary of the method: as §1

E. coli LEC001 = assay: microbe, parasite or virus in culture; type: cell-based, Escherichia coli; conditions: E. coli LEC001 (R); shown in µM
Summary of the method: as §1

A. baumannii AYE = assay: microbe, parasite or virus in culture; type: cell-based, Acinetobacter baumannii; conditions: A. baumannii AYE (R); shown in µM
Summary of the method: as §1

A. baumannii ATCC 17978 = assay: microbe, parasite or virus in culture; type: cell-based, Acinetobacter baumannii; conditions: A. baumannii ATCC 17978 (S); shown in µM
Summary of the method: as §1

HaCat cell line = assay: In vitro HaCat cytotoxicity (MTT); type: cell-based, human; conditions: 21 h exposure, OD570, relative to untreated control
Method: The HaCat cell line (Cellonex, South Africa) was cultured in Dulbecco’s Modified Eagle Medium (DMEM) supplemented with 10% heat-inactivated fetal calf serum (FCS) and 1% antibiotic-antimycotic (Abs) and maintained at 5–10% CO2, 37 °C, 95% humidity. For cytotoxicity screening, 5.56 × 10^4 cells/mL were plated in a 96-well plate. After 24 h incubation, the cells are initially exposed to each peptide at a concentration of 256 μg/mL or 0.1% Triton-X-100 as the control for 21 h. If cytotoxicity was observed, at a level of significance of p < 0.0001 compared with the untreated control after 21 h, a dose-response assay was undertaken. Cell viability was determined by adding 10% 3-(4,5-dimethyl-2-thiazolyl)-2,5-diphenyl-2H-tetrazolium bromide (MTT) (1 mg/mL), to each well and after a further 3 h incubation the media was discarded, and the formazan crystals dissolved by adding 25% DMSO in ethanol. The absorbance was measured at OD570 by using the FLUOstar Omega multidetection microplate reader (BMG Labtech). Percentage cell viability was calculated relative to the untreated control. The LC50 was defined as the concentration of AMP treatment that results in 50% lethality of HaCat cells and was determined from the dose-response curves.

SMILES: CC[C@H](C)[C@H](NC(=O)[C@H](Cc1c[nH]c2ccccc12)NC(=O)[C@H](CC(=O)O)NC(=O)[C@H](Cc1c[nH]c2ccccc12)NC(=O)[C@@H](NC(=O)[C@H](CCCCN)NC(=O)CN)C(C)C)C(=O)N[C@@H](CCCCN)C(=O)N[C@@H](CO)C(=O)N[C@H](C(=O)N[C@@H](C)C(=O)N[C@@H](CCCCN)C(=O)N[C@@H](CCCCN)C(=O)N[C@@H](CC(C)C)C(=O)N[C@@H](Cc1c[nH]c2ccccc12)C(=O)N[C@@H](CC(N)=O)C(N)=O)[C@@H](C)O [Opis16a] (H-GKVWDWIKSTAKKLWN-NH2)
- Modal MIC (K. pneumoniae M6): 4 µM
- Modal MIC (K. pneumoniae NCTC 13368): 8.1 µM
- Modal MIC (P. aeruginosa NCTC 13437): 16.2 µM
- Modal MIC (P. aeruginosa PAO1): 64.7 µM
- Modal MIC50 (C. tropicalis NCPF 8760): 4 µM
- Modal MIC90 (C. tropicalis NCPF 8760): 4 µM
- Modal MIC50 (C. albicans NCPF 3281): 32.4 µM
- Modal MIC90 (C. albicans NCPF 3281): 64.7 µM
- Modal MIC50 (C. glabrata NCPF 8018): 64.7 µM
- Modal MIC90 (C. glabrata NCPF 8018): 64.7 µM
- Modal MIC50 (C. krusei NCPF 3876): 16.2 µM
- Modal MIC90 (C. krusei NCPF 3876): 16.2 µM
- Modal MIC50 [1]: 32.4 µM
- Modal MIC90 [1]: 64.7 µM
- HC10 (concentration causing 10% hemolysis) (human erythrocytes): 155 µg/mL
- HC50 (concentration causing 50% hemolysis) (human erythrocytes): > 256 µg/mL
- Modal MIC50 (C. auris TDG 1912; 50% growth inhibition, RPMI 1640 + 2% glucose, 37 °C, 20 h, OD600): > 128 µg/mL
- Modal MIC90 (C. auris TDG 1912; 90% growth inhibition, RPMI 1640 + 2% glucose, 37 °C, 20 h, OD600): > 128 µg/mL
- Modal MIC50 (C. auris TDG 1912; shown in µM): > 64.7 µM
- Modal MIC90 (C. auris TDG 1912; shown in µM): > 64.7 µM
- Modal MIC [2]: 1 µM
- Modal MIC [3]: 2 µM
- Modal MIC (S. aureus (MRSA) 1199B): 2 µM
- Modal MIC (S. aureus (MRSA) USA300): 4 µM
- Modal MIC (E. coli NCTC 12923): 2 µM
- Modal MIC (E. coli LEC001): 2 µM
- Modal MIC (A. baumannii AYE): 1 µM
- Modal MIC (A. baumannii ATCC 17978): 1 µM

SMILES: CC[C@H](C)[C@H](NC(=O)[C@H](C)NC(=O)[C@H](Cc1c[nH]cn1)NC(=O)[C@@H]1CCCN1C(=O)[C@@H](NC(=O)[C@H](CC(C)C)NC(=O)[C@H](CO)NC(=O)[C@H](Cc1ccccc1)NC(=O)[C@H](CC(C)C)NC(=O)[C@@H](N)Cc1ccccc1)[C@@H](C)CC)C(=O)NCC(=O)NCC(=O)N[C@@H](CC(C)C)C(=O)N[C@H](C(=O)N[C@@H](CO)C(=O)N[C@@H](C)C(=O)N[C@@H](Cc1ccccc1)C(=O)N[C@@H](CCCCN)C(=O)O)[C@@H](C)CC [AamAP1]
- % HaCat cell death at initial screening (256μg/mL) ± SD (HaCat cell line): 44.3 ±20.2%
